Here are results for 3 compounds from patent publication US20020022022A1, “Inhibition of cell proliferation and matrix synthesis by antioxidants and NAD(P)H oxidase inhibitors” (priority 2000, published 2002).

Experiment [1] concerns superoxide anion (—O2^−) generation in coronary adventitia. Put plainly: —O2^− production in uninjured coronary adventitia (SOD-inhibitable NBT reduction). In kind it is cell-based, pigs. Particulars: uninjured coronary adventitia; DETCA 10 mM. On the procedure: (§1) The production of —O2^− is measured by superoxide dismutase- (SOD) or tiron-inhibitable conversion of nitroblue tetrazolium (NBT) to formazan. (20,21)
(§2) —O2^− production in coronary arteries: Coronary arteries are dissected free from adipose tissue and myocardium and then cut into ˜5 mm rings and placed in 24-well plates. Tissues are balanced in phenol-free DMEM at 37° C. in a CO2 incubator for 30 minutes with or without addition of SOD (SOD, 1000 unit/ml) or tiron (10 mM), both scavengers of —O2^− Freshly made NBT (100 mg/L in phenol-free DMEM) is added to the tissues with a gentle rocking for 3 hours. The reaction is terminated by addition of equal volume of 0.5N HCl, and tissues are rinsed twice with cold PBS. To extract formazan, tissues are pulverized in liquid nitrogen and dissolved in 100% pyridine at 80° C. for 30 minutes. After centrifugation, light absorbance is read in supernatants at 540 nm. The NBT reduction to formazan is calculated using the following formula: NBT reduction=A×V/(T×E×L) (A: absorbance; V: volume of solubilizing solution; T: time of incubation with NBT (minutes); E: extinction coefficient=0.72 mmol.mm; L: length of light travel through the solution, 10 mm). Either SOD- or tiron-inhibitable NBT reduction is calculated as measures of —O2^− production (pmol/min/mg wet weight). To determine the pathways mediating —O2^− production, several inhibitors are used in the experiments, including diphenyleneiodonium (DPI, 100 μM), rotenone (ROT, 50 μM), oxypurinol (OXY, 300 μM), N^ω-nitro-L-arginine methyl ester (L-NAME, 1 mM), and diethyldithio-carbamic acid (DETCA, 10 mM). The n value represents the number of vascular rings obtained from at least 3 animals per experimental condition.

Experiment [2] deals with superoxide anion (—O2^−) generation in coronary media. The experiment in a line: —O2^− production in uninjured coronary media (SOD-inhibitable NBT reduction). In kind it is cell-based, pigs. Particulars: DETCA 10 mM. On the procedure:
as §1
as §2, with “To determine the pathways mediating —O2^− production, several inhibitors are used in the experiments, including diphenyleneiodonium (DPI, 100 μM), rotenone (ROT, 50 μM), oxypurinol (OXY, 300 μM), N^ω-nitro-L-arginine methyl ester (L-NAME, 1 mM), and diethyldithio-carbamic acid (DETCA, 10 mM). The n value represents the number of vascular rings obtained from at least 3 animals per experimental condition.” left out

For experiment [3] the following is noted: cited from earlier work.

Consider `CCN(CC)C(=S)S` [DETCA, diethyldithio-carbamic acid], for which the “—O2^− generation in adventitia with SOD inhibitor” value in experiment [1] stood at 19.6 ± 2.5 pmol/mg/min. For the same compound, in experiment [2], the “—O2^− generation in media with SOD inhibitor” value came out at 36.3 ± 8.2 pmol/mg/min.

As to `CCOC(=O)[C@H](CCc1ccccc1)N[C@@H](C)C(=O)N1[C@H](C(=O)O)C[C@@H]2CCC[C@@H]21` [ramipril], the cardiovascular mortality result in experiment [3] (chronic administration, HOPE trial) is given as “reduction”.

As for vitamin E, in experiment [3] (clinical), the “clinical results with antioxidant” value is recorded as “largely negative”.
